Ends that are not written are not given here.

The values below come from patent publication US20210267731A1, “COMPOSITION FOR TREATING AND PREVENTING GINGIVOPERIODONTITIS OR PERI-IMPLANTITIS, AND INTERDENTAL BRUSH COATED WITH SAME” (NIBEC CO., LTD., priority 2018, published 2021).

Assay [1] can be described thus: Test of lipopolysaccharide removal effect of nonionic surfactants. The following applies: compared with other nonionic surfactants (polyoxyethylene, Tween series, span series). The text has this:
Octyl phenol ethoxylate (C14H22O (C2H4O)n) is a nonionic surfactant, has a hydrophilic polyethylene oxide group and a hydrophobic 4-(1,1,3,3-tetramethylbutyl)-phenyl group, and is widely used as a detergent in the biochemical field. In immunostaining, octyl phenol ethoxylate permeabilizes the cell membrane at a concentration of 0.1 to 0.5%, and permeabilizes the cell wall of bacteria at a concentration of 1%. In the present invention, octyl phenol ethoxylate has an effect of removing lipopolysaccharide (LPS). Other nonionic surfactants widely used in this technical field include polyoxyethylene, Tween series, span series and the like.

For assay [2], the system named is Prevotella intermedia. Kind of assay: Antimicrobial experiment, liquid dilution method, colony count. Format: cell-based. Here is the method:
In order to determine the effect of the composition containing the antimicrobial peptide, an antimicrobial experiment was conducted according to the liquid dilution method. Prevotella intermedia, which is a bacterium causative of periodontal disease, was cultured in Tryptic soy broth. The above strain was cultured until the absorbance at 620 nm reached 1, and then the cells were collected and used in the experiment. The cells were diluted with PBS, bacteria were plated at 10^5-10^7/mL on a tryptic soy agar (TSA) plate, and incubated at 37° C. for 24 hours. In order to measure the antimicrobial activity of the peptides using a liquid dilution method, 1 ml of distilled water was added to a microtube, 10 µl of diluted bacterial solution was added thereto and 50 μl of the product was plated on a plate medium which was used as a control group.
After treatment with 50 μg/ml and 100 μg/ml of the peptide of SEQ ID NO: […] and 100 μg/ml of the peptide of SEQ ID NO: 2 at 37° C. for 1 hour, 50 μl of each of the product was plated and the number of colonies that formed was counted. In addition, the antimicrobial activity of the composition of Example 1, a composition containing the composition of Example 1 and the peptide of SEQ ID NO: 1, and a composition containing the composition of Example 1 and the peptide of SEQ ID NO: 2 was measured in the same manner as above.

Turning to octyl phenol ethoxylate, the lipopolysaccharide removal effect entry in assay [1] is listed as “greatest lipopolysaccharide removal effect”.

“GKSST RGRKS CRRKK-NH2 (GKSSTRGRKSCRRKK-NH2) [peptide of SEQ ID NO: 2, antimicrobial peptide]”: in assay [2] (among peptides of SEQ ID NO: 1 to SEQ ID NO: 4), the antimicrobial activity entry was “best antimicrobial activity”. Further, the “antimicrobial activity of peptide (colonies formed)” value in assay [2] (peptide at 100 μg/ml, 37° C., 1 hour, FIG. 6) is “the highest”.
